The results in this text go back to patent US20230192700A1, “PYRAZOLOPYRAZINES ACTING ON CANCERS VIA INHIBITION OF CDK12” (Bayer Aktiengesellschaft, priority 2020, published 2023).

The target in one assay is T1, CYCLIN K (Homo sapiens, UniProt O75909).
T1 construct: endogenous in cells; host or cells: CAL-120 human breast cancer cells (DSMZ ACC 459)
As to the kind of experiment: CYCLIN K nuclear protein level: immunofluorescence/high content analysis in CAL-120 cells. It is filed as cell-based. As to conditions: 24 h, nuclear CCNK staining intensity, median, read-out: CYCLIN K degradation IF, DC50- [mol/l] (median). How it is done:
7. CYCLIN K Nuclear Protein Level: Immunofluorescence/High Content Analysis
In the context of the present invention, the term “DC50 Cyclin K” refers to the DC50 values obtained according to the assay described in this section (7) herein below, i.e. the DC50 values for the degradation of Cyclin K.
(§1) CAL-120 human breast cancer cells (DSMZ ACC 459) are seeded in 1536-well microtiter plates (800 cells per well) containing 50 nanoL of compounds in Dose-Response. Control wells received DMSO or Reference Example 1. Plates are then incubated for 24 h at 37° C. in an humidified incubator and fixed with 4% PFA for 10 min. Then immunofluorescence (IF) against CYCLIN K (ThermoFisher Scientific CCNK Antibody # PA5-85020, rabbit, 1:200 dilution) is performed using standard IF protocols. Cells are then stained with Hoechst 33342 (Life Technologies, H-1399, 0.1 microg/mL) and imaged on an automated confocal microscopy system (e.g. Perkin Elmer Opera Phenix). Nuclear and cytoplasmic intensity as well as the nuclear/cytoplasmic intensity ratio is determined by automated image analysis using custom generated scripts (MetaXpress). Data is then transferred to Genedata Screener software, normalized to DMSO and control and DC50 values (degrading concentration to achieve 50% reduction of nuclear CCNK staining intensity relative to controls) are reported.

The target of the next assay is T2, CDK12/CyclinK (Homo sapiens, UniProt Q9NYV4).
T2 construct: His-CDK12 (aa Q696-S1082); made in house; host or cells: Hi-5 insect cells (baculovirus co-infection with CycK and yeast CAK1)
T2 sequence (Q9NYV4 with tags, fused parts or gaps): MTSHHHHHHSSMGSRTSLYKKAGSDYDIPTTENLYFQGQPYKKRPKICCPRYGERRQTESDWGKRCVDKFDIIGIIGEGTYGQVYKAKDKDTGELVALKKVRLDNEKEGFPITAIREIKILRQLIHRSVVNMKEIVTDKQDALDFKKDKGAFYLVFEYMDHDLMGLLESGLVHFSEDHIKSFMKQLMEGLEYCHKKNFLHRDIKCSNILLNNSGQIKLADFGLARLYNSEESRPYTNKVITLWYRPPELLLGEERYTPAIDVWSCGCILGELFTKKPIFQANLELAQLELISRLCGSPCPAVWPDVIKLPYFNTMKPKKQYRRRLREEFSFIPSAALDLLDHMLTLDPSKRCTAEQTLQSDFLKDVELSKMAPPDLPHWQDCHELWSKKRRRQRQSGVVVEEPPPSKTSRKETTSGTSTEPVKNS
T2 sequence (O75909 with tags, fused parts or gaps partner limits assumed): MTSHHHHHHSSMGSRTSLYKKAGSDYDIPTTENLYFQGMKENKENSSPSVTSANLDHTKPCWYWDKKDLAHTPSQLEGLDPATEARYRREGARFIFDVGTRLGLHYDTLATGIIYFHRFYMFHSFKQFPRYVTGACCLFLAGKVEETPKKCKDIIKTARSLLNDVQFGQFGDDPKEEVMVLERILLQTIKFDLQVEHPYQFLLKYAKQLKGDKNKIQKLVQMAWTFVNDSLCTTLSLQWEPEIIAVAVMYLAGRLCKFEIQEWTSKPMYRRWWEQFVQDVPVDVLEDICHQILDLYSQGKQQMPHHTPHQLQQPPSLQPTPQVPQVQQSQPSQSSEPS
As to the kind of experiment: CDK12/CycK high ATP kinase assay (TR-FRET). It is filed as biochemical. As to conditions: 2 mM ATP (high ATP); median; read-out: CDK12/CyclinK, 2 mM ATP (high ATP), IC50 - [mol/l] (median). The source says:
2.2 CDK12/CycK high ATP Kinase Assay
In the context of the present invention, the term “IC50 CDK12 hATP” refers to the ICso values obtained according to the assay described in this section (2.2) herein below, i.e. the IC50 values for the inhibition of CDK12 at high ATP.
CDK12/CycK -inhibitory activity of compounds of the present invention at 2 millimol/L adenosine-tri-phosphate (ATP) was quantified employing the TR-FRET (TR-FRET=Time Resolved Fluorescence Energy Transfer) based CDK12/CycK activity inhibition assay as described in the following paragraphs.
A complex of human recombinant CDK12 and human recombinant CycK (both N-terminally His-tagged, expression and purification as described above) was used as enzyme. As substrate for the kinase reaction biotinylated peptide biotin-Ahx-KFELLPTPPLSPSRRSGL (C-terminus in amid form) was used which can be purchased e.g. form the company Biosyntan (Berlin-Buch, Germany).
For the assay 50 nanoL of a 100 fold concentrated solution of the test compound in DMSO was pipetted into either a black low volume 384 well microtiter plate or a black 1536 well microtiter plate (both Greiner Bio-One, Frickenhausen, Germany), 2 microL of a solution of CDK12/CycK in aqueous assay buffer [25 millimol/L HEPES pH 7.5, 20 millimol/L MgCl2, 5 millimol/L β-glycerophosphate, 2 millimol/L EGTA, 1.0 millimol/L dithiothreitol, 0.01% (v/v) Nonidet-P40 (Sigma), 0.01% (w/v) bovine serum albumin] were added and the mixture was incubated for 15 min at 22° C. to allow pre-binding of the test compounds to the enzyme before the start of the kinase reaction. Then the kinase reaction was started by the addition of 3 microL of a solution ATP (3.33 millimol/L=>final conc. in the 5 microL assay volume is 2 millimol/L) and substrate (1.67 micromol/L=>final conc. in the 5 microL assay volume is 1 micromol/L) in assay buffer and the resulting mixture was incubated for a reaction time of 60 min at 22° C. The concentration of CDK12/CycK was adjusted depending of the activity of the enzyme lot and was chosen appropriate to have the assay in the linear range, typical concentrations were about 0.75 nanomol/L. The reaction was stopped by the addition of 3 microL of a solution of TR-FRET detection reagents (125 nanomol/L streptavidine-XL665 [Cisbio Bioassays, Codolet, France] and 0.67 nanomol/L anti-Phospho-c-Myc (Ser 62) (E1J4K)-antibody from Cell Signalling [#13748] and 2 nanomol/L LANCE EU-W1024 labeled anti-rabbit IgG antibody [Perkin-Elmer, product no. 0083]) in an aqueous EDTA-solution (133 millimol/L EDTA, 0.27% (w/v) bovine serum albumin in 66.7 millimol/L HEPES pH 7.5).
The resulting mixture was incubated 1 h at 22° C. to allow the formation of complex between the phosphorylated biotinylated peptide and the detection reagents. Subsequently the amount of phosphorylated substrate was evaluated by measurement of the resonance energy transfer from the Eu-chelate to the streptavidine-XL. Therefore, the fluorescence emissions at 620 nm and 665 nm after excitation at 350 nm was measured in a TR-FRET reader, e.g. a Pherastar FS (BMG Labtechnologies, Offenburg, Germany) or a Viewlux (Perkin-Elmer). The ratio of the emissions at 665 nm and at […] was taken as the measure for the amount of phosphorylated substrate. The data were normalised (enzyme reaction without inhibitor=0% inhibition, all other assay components but no enzyme=100% inhibition).

Another assay has as its target T3, CDK12 (Homo sapiens, UniProt Q9NYV4).
T3 construct: endogenous in cells; host or cells: CAL-120 human breast cancer cells (DSMZ ACC 459)
The assay is described as follows: CDK12 nuclear protein level: immunofluorescence/high content analysis in CAL-120 cells. It is filed as cell-based. Here is the method: 6. CDK12 Nuclear Protein Level: Immunofluorescence/High Content Analysis
In the context of the present invention, the term “DC50 CDK12” refers to the DC50 values obtained according to the assay described in this section (6) herein below, i.e. the DC50 values for the degradation of CDK12.:
as §1, with “CDK12 (CellSignalling CDK12” for “CYCLIN K (ThermoFisher Scientific CCNK”, “#11973,” for “# PA5-85020,”, “1:100” for “1:200”, “CDK12” for “CCNK”

T3 sequence (Q9NYV4 whole entry): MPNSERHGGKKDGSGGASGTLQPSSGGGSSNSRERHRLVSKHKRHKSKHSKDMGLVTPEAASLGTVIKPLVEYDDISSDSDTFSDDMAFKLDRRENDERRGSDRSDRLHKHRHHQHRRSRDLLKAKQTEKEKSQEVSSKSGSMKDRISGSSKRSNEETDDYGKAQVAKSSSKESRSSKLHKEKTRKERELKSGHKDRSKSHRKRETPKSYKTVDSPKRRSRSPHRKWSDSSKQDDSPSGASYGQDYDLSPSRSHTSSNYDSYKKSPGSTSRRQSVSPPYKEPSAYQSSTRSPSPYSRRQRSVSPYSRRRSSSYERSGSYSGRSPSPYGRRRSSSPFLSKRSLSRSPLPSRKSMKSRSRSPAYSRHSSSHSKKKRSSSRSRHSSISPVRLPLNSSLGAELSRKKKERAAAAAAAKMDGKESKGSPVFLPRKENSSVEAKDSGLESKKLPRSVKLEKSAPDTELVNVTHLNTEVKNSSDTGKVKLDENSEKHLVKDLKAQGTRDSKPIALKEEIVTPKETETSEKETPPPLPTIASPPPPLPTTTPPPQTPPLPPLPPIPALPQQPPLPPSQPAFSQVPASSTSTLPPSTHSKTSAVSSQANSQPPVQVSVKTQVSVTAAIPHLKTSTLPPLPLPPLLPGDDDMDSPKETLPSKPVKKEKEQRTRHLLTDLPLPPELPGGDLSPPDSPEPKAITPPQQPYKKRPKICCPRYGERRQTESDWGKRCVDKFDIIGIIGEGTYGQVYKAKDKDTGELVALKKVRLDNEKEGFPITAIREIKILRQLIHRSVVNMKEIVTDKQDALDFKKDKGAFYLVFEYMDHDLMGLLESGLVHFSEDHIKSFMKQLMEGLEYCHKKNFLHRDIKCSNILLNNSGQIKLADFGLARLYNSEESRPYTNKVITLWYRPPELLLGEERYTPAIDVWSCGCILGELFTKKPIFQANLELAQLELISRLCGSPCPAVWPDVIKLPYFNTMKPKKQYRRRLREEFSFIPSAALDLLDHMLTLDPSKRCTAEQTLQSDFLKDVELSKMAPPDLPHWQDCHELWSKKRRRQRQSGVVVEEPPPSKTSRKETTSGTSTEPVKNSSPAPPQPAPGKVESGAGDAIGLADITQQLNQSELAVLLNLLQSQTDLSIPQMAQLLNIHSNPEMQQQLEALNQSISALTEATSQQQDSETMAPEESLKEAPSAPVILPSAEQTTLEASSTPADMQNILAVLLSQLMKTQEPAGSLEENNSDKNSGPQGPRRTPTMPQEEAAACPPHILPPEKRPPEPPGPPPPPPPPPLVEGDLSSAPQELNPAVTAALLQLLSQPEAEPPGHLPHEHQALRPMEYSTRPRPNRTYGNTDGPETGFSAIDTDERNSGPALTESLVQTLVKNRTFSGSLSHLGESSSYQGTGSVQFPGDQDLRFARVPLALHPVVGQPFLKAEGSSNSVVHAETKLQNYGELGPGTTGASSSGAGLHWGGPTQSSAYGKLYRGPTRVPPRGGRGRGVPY
T3 sequence (O75909 whole entry partner): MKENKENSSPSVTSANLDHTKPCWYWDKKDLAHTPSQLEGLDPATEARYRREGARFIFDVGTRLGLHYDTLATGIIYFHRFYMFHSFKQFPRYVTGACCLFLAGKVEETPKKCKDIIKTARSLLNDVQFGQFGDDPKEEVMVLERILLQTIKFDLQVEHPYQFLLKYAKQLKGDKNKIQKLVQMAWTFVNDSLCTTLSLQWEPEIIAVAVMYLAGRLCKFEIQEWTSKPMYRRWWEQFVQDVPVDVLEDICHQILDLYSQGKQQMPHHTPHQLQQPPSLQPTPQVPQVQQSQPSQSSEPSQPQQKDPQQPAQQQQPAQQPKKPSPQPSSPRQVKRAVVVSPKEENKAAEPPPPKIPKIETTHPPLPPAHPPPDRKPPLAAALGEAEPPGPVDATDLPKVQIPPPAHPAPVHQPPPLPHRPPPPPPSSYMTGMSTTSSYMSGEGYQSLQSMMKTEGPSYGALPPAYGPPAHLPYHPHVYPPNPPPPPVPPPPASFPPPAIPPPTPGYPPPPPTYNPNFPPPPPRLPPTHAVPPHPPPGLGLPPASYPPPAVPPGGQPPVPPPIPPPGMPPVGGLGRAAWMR
T1 sequence (O75909 whole entry): as the sequence (O75909 whole entry partner) above
T1 sequence (Q9NYV4 whole entry partner): as the sequence (Q9NYV4 whole entry) above

`CN1CCC(n2nc(NCc3nc4c(OC(F)(F)F)cccc4[nH]3)c3ncc(C4CC4)nc32)CC1` [Example 5, 6-cyclopropyl-1-(1-methylpiperidin-4-yl)-N-{[4-(trifluoromethoxy)-1H-benzimidazol-2-yl]methyl}-1H-pyrazolo[3,4-b]pyrazin-3-amine]: the DC50 was 3.46 nM at CYCLIN K and 83.4 nM on CDK12 (CAL-120 cells, 24 h, nuclear CDK12 staining intensity, median, read-out: CDK12 degradation IF DC50 - [mol/l] (median)). The IC50 on CDK12/CyclinK was more than 20000 nM. At CDK12 (ratio of IC50 CDK12 hATP (2 mM ATP) to DC50 CDK12 (IF, CAL-120)), the “(IC50 CDK12 high ATP) to (Degradation DC50 CDK12) ratio” value is given as more than 239.
